Results reported in patent US12171779B2, “Regulated drug delivery via controlled degradable chondroitin sulfate particles” (UNIVERSITY OF SOUTH FLORIDA, priority 2021, dated 2024).

How the values were obtained:
[1] = Total phenolic content by Folin-Ciocalteau (FC) method; settings: 1000 μg/mL concentration
Method: Total phenolic content of the particles was evaluated by Folin-Ciocalteau (FC) method. Briefly, 0.1 mL of 1 mg/mL microgel suspensions were reacted with 1.25 mL of 0.2 N solution of FC phenol reagent for 4 min. Next, 1 mL of 0.7 M sodium bicarbonate solution was added to this mixture and kept in the dark for 2 hours. Then, the total phenol content of the microgels was measured by using a UV/Vis spectrophotometer (T80+PG Instrument) at 760 nm. The antioxidant activity of the microgels was expressed as μg/mL gallic acid equivalent. The analysis was repeated three times, and the values are reported as the average values with standard deviations.

[2] = cited from earlier work

For `O=C(/C=C/c1ccc(O)c(O)c1)O[C@H](Cc1ccc(O)c(O)c1)C(=O)O` [RA, Rosmarinic acid], the “Total phenol content (TPC), gallic acid equivalent” value [1] is given as 556±35 μg/mL gallic acid equivalent and the “IC50 (50% inhibition of DPPH radical)” value [2] is given as 1.3 ± 0.1 µg/mL.
